# US9518008B2, “(1S,2S,3S,4R)-3-[(1S)-1-acetylamino-2-ethyl-butyl]-4-uanidino-2-hydroxyl-cyclopentyl-1-carboxylic acid hydrates pharmaceutical uses thereof” (Institute of Pharmacology and Toxicology Academy of …, priority 2007, dated 2016)
# Like-named read-outs stand apart in the source and are kept apart here.
# Legend:
# [1] = Determination of hygroscopicity (high humidity test); type: physicochemical
# Protocol: The hygroscopicity of the compound of the invention can be tested by a standard hygroscopicity test method. For example, the compound is stored in a sealed vessel at room temperature at a relative humidity of 92.5%, 80% or 75%, and the change in moisture content of the compound is tested by sampling at regular intervals.
# At the 5th and 10th days, the products were sampled and determined in aspect of important items relating to stability investigation. […] If the weight gain of a product due to moisture absorption was more than 5%, the product was further experimented according to the same method under a relative humidity of 75%±5%. If the weight gain of a product due to moisture absorption was less than 5%, and other items thereof under investigation met the relevant requirements, no more experiment was needed. The humidity-constant condition could be achieved by placing a saturated saline solution at the lower part of a sealed vessel, e.g., a desiccator, and a NaCl saturated solution (15.5-60° C., a relative humidity of 75%±1%) or a KNO3 saturated solution (25° C., a relative humidity of 92.5%) may be selected according to the requirement of different relative humidity.
# [2] = Dissolution behavior in water; type: physicochemical; settings: for dissolution behavior: 100 ml: 300 mg
# Protocol: (1) water for injection (room temperature)
# (2) water for injection (80° C.)
# (3) water for injection (room temperature, adjusted to be acidic with hydrochloric acid)
# (4) water for injection (adjusted to be basic with disodium hydrogen phosphate)
# [3] = Influence of different acidic conditions (pH) on stability of trihydrate solution, sterilization; type: physicochemical; settings: conclusion from sterilization and 60° C. data
# Protocol: The resulting solutions were high pressure steam sterilized at 115° C. for 30 minutes. Then, the solutions were sampled for the determination of change in pH value and change in amount of relevant substances.
# [4] = target: Influenza A virus (H3N2) neuraminidase (Influenza A virus, UniProt P03482); assay: Neuraminidase inhibition by fluorimetry with 4-MUNANA; type: biochemical
# Chain of Influenza A virus (H3N2) neuraminidase (P03482 whole entry, looked up): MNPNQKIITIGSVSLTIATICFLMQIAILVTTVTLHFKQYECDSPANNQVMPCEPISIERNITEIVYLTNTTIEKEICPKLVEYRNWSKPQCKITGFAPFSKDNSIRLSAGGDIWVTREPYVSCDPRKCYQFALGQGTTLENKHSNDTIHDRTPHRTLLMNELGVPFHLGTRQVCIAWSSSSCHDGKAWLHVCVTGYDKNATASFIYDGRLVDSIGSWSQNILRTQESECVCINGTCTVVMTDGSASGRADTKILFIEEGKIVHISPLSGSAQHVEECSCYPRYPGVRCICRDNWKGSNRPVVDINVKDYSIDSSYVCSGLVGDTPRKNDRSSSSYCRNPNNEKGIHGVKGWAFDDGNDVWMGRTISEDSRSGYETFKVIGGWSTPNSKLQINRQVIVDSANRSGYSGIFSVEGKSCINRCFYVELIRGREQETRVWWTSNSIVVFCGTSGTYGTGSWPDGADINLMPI
# [5] = tested on: Influenza B virus (B/Jing Fang/76/98) neuraminidase; assay: as above; type: biochemical
# [6] = Accelerated stability test of the hydrates; settings: for Character / Content / Change in weight: 40° C., 75% RH
# Protocol: The stability of the compound of the invention can be tested by a standard stability test method, such as the methods specified in Guidelines for Stability Testing of Drug Substances involved in Appendix XIX C of Chinese Pharmacopoeia (2005 edition). For example, the stability of the compound of the general formula (I) can be tested by an accelerated stability test method, e.g., the stability of the compound of the general formula (I), at 0, 1, 2, 3, 6 months, is tested respectively under the conditions: 40° C., 75% relative humidity; 40° C., 92.5% relative humidity; and 80° C. The change in principal agent and relevant substances can be analyzed by thin layer chromatography, high performance liquid chromatography, and etc.
# The device used should be capable of controlling temperature with a precise of ±2° C., and relative humidity with a precise of ±5%, and could monitor true temperature and humidity. The products were sampled respectively at the end of the 1, 2, 3 and 6 months during the test, and determined in aspect of important items relating to stability investigation.
# [7] = tested on: influenza virus strain FM1 (H1N1); assay: Anti-influenza activity in infected mice (survival); type: in vivo, mice (BALB/C); settings: 5 times, 14th day after infection
# Protocol: A virus drip is prepared typically by including 500 pfu (plaque forming unit) of mice-compliance influenza virus strain in 50 μl phosphate buffer (containing 0.42% bovine serum albumin), and then dropped into nasal cavity of mice to infect them (BALB/C, female, aged 5-6 weeks, weighted 20 g). The compound of the invention is suspended in physiological saline to obtain different doses, typically from 2.5 mg/kg to 40 mg/kg, and is administered to the mice at different time before and after the viral infection, typically administered by intraperitoneal injection for 5 times, i.e., 1 hour, and 2, 3, 4, 5 days after the viral infection. The assay is performed by using 8 or 12, typically 10 mice. The result is expressed by the ratio of the number of survival mice the 14th day after the viral infection to the number of the mice in assay.
# A solution was prepared by including 500 pfu (plaque forming unit) of mice-compliance influenza virus strain FM1 (H1N1) in 50 μl phosphate buffer (containing 0.42% bovine serum albumin), and then dropped into nasal cavity of mice (BALB/C, female, aged 5-6 weeks, weighted 20 g) to infect them with an infective dose of 23.7LD50. The compound of the invention was suspended in physiological saline, and was administered in doses of 2.5 mg/kg, 5 mg/kg, 10 mg/kg, 20 mg/kg to the mice by intraperitoneal injection for 5 times, i.e., 1 hour, and 2, 3, 4, 5 days after the viral infection, respectively. The assay was performed by 10 mice. The result was expressed by the ratio of the number of survival mice the 14th day after the viral infection to the number of the mice in assay.
# [8] = Relative humidity 92.5%, 25° C.
# [9] = Con. 0.01 nM, virus concentration NA 1/40
# [10] = Con. 0.1 nM, virus concentration NA 1/40
# [11] = Con. 1 nM, virus concentration NA 1/40
# [12] = Con. 10 nM, virus concentration NA 1/40
# [13] = Con. 100 nM, virus concentration NA 1/40
# [14] = virus concentration NA 1/40, read-out: IC50
smiles,measurement,setting,value
"CCC(CC)[C@H](NC(C)=O)[C@H]1[C@H](O)[C@@H](C(=O)O)C[C@H]1NC(=N)N.O [Monohydrate, (1S,2S,3S,4R)-3-[(1S)-1-acetylamino-2-ethyl-butyl]-4-guanidino-2-hydroxy-cyclopentyl-1-carboxylic acid monohydrate]",Hygroscopicity at the 5th day,[1]; Relative humidity 75%,2.41%
same,Hygroscopicity at the 10th day,[1]; Relative humidity 75%,2.77%
same,Hygroscopicity at the 5th day,[1]; [8],2.83%
same,Hygroscopicity at the 10th day,[1]; [8],3.35%
"CCC(CC)[C@H](NC(C)=O)[C@H]1[C@H](O)[C@@H](C(=O)O)C[C@H]1NC(=N)N.CCC(CC)[C@H](NC(C)=O)[C@H]1[C@H](O)[C@@H](C(=O)O)C[C@H]1NC(=N)N.O.O.O [Sesquihydrate, (1S,2S,3S,4R)-3-[(1S)-1-acetylamino-2-ethyl-butyl]-4-guanidino-2-hydroxy-cyclopentyl-1-carboxylic acid sesquihydrate]",Hygroscopicity at the 5th day,[1]; Relative humidity 75%,4.01%
same,Hygroscopicity at the 10th day,[1]; Relative humidity 75%,6.89%
same,Hygroscopicity at the 5th day,[1]; [8],4.48%
same,Hygroscopicity at the 10th day,[1]; [8],7.33%
"CCC(CC)[C@H](NC(C)=O)[C@H]1[C@H](O)[C@@H](C(=O)O)C[C@H]1NC(=N)N.O.O.O [Trihydrate, (1S,2S,3S,4R)-3-[(1S)-1-acetylamino-2-ethyl-butyl]-4-guanidino-2-hydroxy-cyclopentyl-1-carboxylic acid trihydrate]",dissolution behavior,[2]; (1) water for injection (room temperature),slowly dissolved
same,dissolution behavior,[2]; (2) water for injection (80° C.),rapidly dissolved
same,dissolution behavior,"[2]; (3) water for injection, room temperature, acidic with hydrochloric acid",relatively easily dissolved
same,"dissolution behavior, condition (3) compared with (4)",[2]; (4) water for injection adjusted to be basic with disodium hydrogen phosphate,more easily dissolved under acidic condition
same,optimum pH value (stability in solution),[3],4.5-6.5
same,inhibitory rate IR,[4]; [9],0.63%
same,inhibitory rate IR,"[4]; Con. 0.01 nM, virus concentration NA 1/80",12.33%
same,inhibitory rate IR,[4]; [10],13.23%
same,inhibitory rate IR,"[4]; Con. 0.1 nM, virus concentration NA 1/80",24.04%
same,inhibitory rate IR,[4]; [11],60.99%
same,inhibitory rate IR,"[4]; Con. 1 nM, virus concentration NA 1/80",63.20%
same,inhibitory rate IR,[4]; [12],99.25%
same,inhibitory rate IR,"[4]; Con. 10 nM, virus concentration NA 1/80",98.80%
same,inhibitory rate IR,[4]; [13],100.43%
same,inhibitory rate IR,"[4]; Con. 100 nM, virus concentration NA 1/80",99.89%
same,IC50,"[4]; average of NA 1/40 and NA 1/80, read-out: Average IC50",0.542 nM
same,IC50,[4]; [14],0.673 nM
same,IC50,"[4]; virus concentration NA 1/80, read-out: IC50",0.411 nM
same,inhibitory rate IR,"[5]; Con. 0.01 nM, virus concentration NA 1/20",8.81%
same,inhibitory rate IR,[5]; [9],7.92%
same,inhibitory rate IR,"[5]; Con. 0.1 nM, virus concentration NA 1/20",15.31%
same,inhibitory rate IR,[5]; [10],19.17%
same,inhibitory rate IR,"[5]; Con. 1 nM, virus concentration NA 1/20",39.11%
same,inhibitory rate IR,[5]; [11],44.84%
same,inhibitory rate IR,"[5]; Con. 10 nM, virus concentration NA 1/20",82.01%
same,inhibitory rate IR,[5]; [12],81.45%
same,inhibitory rate IR,"[5]; Con. 100 nM, virus concentration NA 1/20",97.78%
same,inhibitory rate IR,[5]; [13],96.71%
same,IC50,"[5]; average of NA 1/20 and NA 1/40, read-out: Average IC50",1.07 nM
same,IC50,"[5]; virus concentration NA 1/20, read-out: IC50",1.14 nM
same,IC50,[5]; [14],0.998 nM
same,Character,[6]; 0 month,White solid
same,Content,[6]; 0 month,99.90%
same,Change in weight,[6]; 1 month,+0.01%
same,Character,[6]; 1 month,White solid
same,Content,[6]; 1 month,99.95%
same,Change in weight,[6]; 2 months,−0.02%
same,Character,[6]; 2 months,White solid
same,Content,[6]; 2 months,99.97%
same,Change in weight,[6]; 3 months,+0.01%
same,Character,[6]; 3 months,White solid
same,Content,[6]; 3 months,99.96%
same,Change in weight,[6]; 6 months,+0.01%
same,Character,[6]; 6 months,White solid
same,Content,[6]; 6 months,99.91%
same,stability,"[6]; stability test of 1, 2, 3, 6 months",good stability
same,Survival number,[7]; 2.5 mg/kg intraperitoneal,6/10
same,Survival rate,[7]; 2.5 mg/kg intraperitoneal,60%
same,Survival number,[7]; 5.0 mg/kg intraperitoneal,7/10
same,Survival rate,[7]; 5.0 mg/kg intraperitoneal,70%
same,Survival number,[7]; 10 mg/kg intraperitoneal,8/10
same,Survival rate,[7]; 10 mg/kg intraperitoneal,80%
same,Survival number,[7]; 20 mg/kg intraperitoneal,9/10
same,Survival rate,[7]; 20 mg/kg intraperitoneal,90%
same,Hygroscopicity at the 5th day,[1]; Relative humidity 75%,1.68%
same,Hygroscopicity at the 10th day,[1]; Relative humidity 75%,1.83%
same,Hygroscopicity at the 5th day,[1]; [8],2.11%
same,Hygroscopicity at the 10th day,[1]; [8],2.24%
same,weight gain,"[1]; ten-day observation test, sealed vessel, room temperature, high relative humidity",about 2.24%
"CCC(CC)[C@H](NC(C)=O)[C@H]1[C@H](O)[C@@H](C(=O)O)C[C@H]1NC(=N)N.O.O.O.O.O.O [Hexahydrate, (1S,2S,3S,4R)-3-[(1S)-1-acetylamino-2-ethyl-butyl]-4-guanidino-2-hydroxy-cyclopentyl-1-carboxylic acid hexahydrate]",Hygroscopicity at the 5th day,[1]; Relative humidity 75%,3.86%
same,Hygroscopicity at the 10th day,[1]; Relative humidity 75%,6.33%
same,Hygroscopicity at the 5th day,[1]; [8],4.37%
same,Hygroscopicity at the 10th day,[1]; [8],9.96%
